According to ChEMBL document CHEMBL1149529 (Bioorg Med Chem Lett, 2007):

Columns and labels:
[1] = Clearance in rat at 5 mg/kg, iv; format: ADME, organism-based; parameters: dose 5 mg/kg, route intravenous; details: in vivo
[2] = Oral bioavailability in rat at 15 mg/kg, po; format: ADME, organism-based; details: in vivo

Structure (SMILES)	clearance [1]	bioavailability [2]
Cc1c(CN(C)C[C@@H](O)c2ccccn2)sc2c(=O)c(C(=O)NCc3ccc(Cl)cc3)cn(C)c12	23.3 mL/min/kg	30%
CN(CC1=CC2C(=O)C(C(=O)NCc3ccc(Cl)cc3)=CN(C)C2S1)C[C@@H](O)c1ccccn1 (stereo partly specified)	46.7 mL/min/kg	45%
Cc1c(CN(C)C[C@@H](O)c2ncccn2)sc2c(=O)c(C(=O)NCc3ccc(F)cc3)cn(C)c12	35 mL/min/kg	29%
